In PMC2841005 (Developmental and comparative immunology, 2010):

Key:
Type in all cases: cell-based
[1] = system: Gram-negative and Gram-positive bacterial strains; assay: Antibacterial activity against the panel of strains, broth micro-dilution assay
bacteria = assay: Antibacterial test of the first synthetic 27-residue repeat peptide; settings: data not shown
E. coli O157:H7 = assay: MIC, broth micro-dilution assay

Row | Sequence | Antibacterial activity against the bacterial strains tested (in words) [1] | Killing of bacteria (in words) (bacteria) | Activity against E. coli O157:H7 (in words) (E. coli O157:H7)
1 | SVETLASQEHLSSLPMDSQETLLRGTR [LP4] | no activity | – | –
2 | RSVETLASQEHLSSLPMDSQETLLRGT | – | did not kill any bacteria | –
3 | ESGNEPLWLYQGDNIPKAPSTAEHPFLPSIIDDVKFNPDRRYA [LP2A] | did not affect the bacterial growth | – | –
4 | SLGTPDHYHGGRHSISRGSQSTGPTHPGYNRRNAR [LP3] | active against bacteria | – | low activity
5 | SLGTPDHYHGGRHSISRGSQSTGPTHPGYNRRNA [LP3A] | inactive | – | inactive
6 | SVETLASQEHLSSLPMDSQETLLRGT [LP4A] | inactive | – | –
7 | ESGNEPLWLYQGDNIPKAPSTAEHPFLPSIIDDVKFNPDRRYAR [LP2] | did not exhibit antimicrobial activity | – | –
